Measured values as given in patent publication US20070166781A1, “Method for assessing the virulence of pathogens and uses thereof” (priority 2002, published 2007).
In brackets after ≈: the same amount, converted by molar mass. Read-outs that look alike come from different tables or passages of the source.

Columns and labels:
Type in all cases: cell-based
[1] = tested on: P. aeruginosa PAO-BI (nfxC); assay: MIC in Mueller-Hinton broth by the microdilution method; conditions: Pseudomonas aeruginosa
Experimental: (§1) Bacteria were grown overnight at 37° C. on Luria-Bertani (LB) agar. Single colonies were inoculated into 5 ml PB (2% (wt/vol) peptone, 0.3% (wt/vol) MgCl2.6H2O, 1% (wt/vol) K2SO4) (Essar et al., 1990, J. Bacteriol., 172(2), 884-900) in a 50 ml flask and grown at 37° C. for 8 hr prior to use. […] Under these conditions, similar OD600s were obtained for each strain and the induction of quorum sensing was maximal. Minimal Inhibitory Concentrations (MICs) were determined in Mueller-Hinton broth by the microdilution method (Thornsberry et al., 1983 NCCLS, 3, 48-56).

P. aeruginosa PAO1 [2] = assay: as above; conditions: Pseudomonas aeruginosa; strain PAO1
Experimental: as §1

P. aeruginosa PDO100 = assay: as above; conditions: Pseudomonas aeruginosa
Experimental: as §1

[3] = tested on: P. aeruginosa PT149 (nfxC); assay: as above; conditions: Pseudomonas aeruginosa
Experimental: as §1

[4] = tested on: P. aeruginosa PT625 (nalB); assay: as above; conditions: Pseudomonas aeruginosa
Experimental: as §1

[5] = tested on: P. aeruginosa PT648 (nfxB); assay: as above; conditions: Pseudomonas aeruginosa
Experimental: as §1

P. aeruginosa PAO1 [6] = assay: Growth of D. discoideum DH1-10 on a lawn of P. aeruginosa PAO1 grown with azithromycin; conditions: lawn of PAO1, 2 μg/ml azithromycin
Experimental: Quantitative measurements of D. discoideum growth on a lawn of pure P. aeruginosa were obtained by first plating 200 μl of P. aeruginosa culture on SM-agar. Droplets of 5 μl containing serial dilutions of D. discoideum cells (50.000 cells, 10.000 cells, 2.000, etc.) were then spotted on the bacterial lawn. The plates were incubated for 5 days at 25° C. and the highest dilution at which D. discoideum growth was visible was recorded.
However, in these experiments, Dictyostelium was grown in, the presence of both Klebsiella and Pseudomonas bacteria. […] To obtain more quantitative results, higher numbers of Dictyostelium cells were used to determine how many amoebae would be necessary to create a plaque in a lawn of P. aeruginosa. […] Consequently growth of Dictyostelium on the lasR mutant was scored as 1. On a lawn of the rhlR mutant PT462, amoebal growth could be observed in the first five dilutions of Dictyostelium (FIG. 2C; scored 5). […]
A lawn of P. aeruginosa PAO1 is grown in the presence of 2 μg/ml of azithromycin overnight. The bacterial lawn is then seeded with different dilutions of D. discoideum DH1-10 three days latter and the appearance of D. discoideum DH1-10 colonies is monitored. Growth of colonies of D. discoideum DH1-10 are recorded and scored between 1 and 2 (same scale as FIG. 2) as compared to a score of 0 in the absence of antibiotic.

[7] = strain PAO-BI (nfxC), read-out: MIC
[8] = strain PT149 (nfxC), read-out: MIC
[9] = strain PT648 (nfxB), read-out: MIC

Compound	MIC [1, 7]	MIC (P. aeruginosa PAO1 [2])	MIC (P. aeruginosa PDO100; strain PDO100, read-out: MIC)	MIC [3, 8]	MIC [4]	MIC [5, 9]	MIC [1]	MIC (P. aeruginosa PDO100; PDO100)	MIC [3]	MIC [5]	Growth of colonies of D. discoideum DH1-10 in the presence versus absence of azithromycin (P. aeruginosa PAO1 [6])
C[C@H]1[C@H](NC(=O)/C(=N\OC(C)(C)C(=O)O)c2csc(N)n2)C(=O)N1S(=O)(=O)O [Aztreonam]	2 µg/mL (≈ 4.59 µM)	4 µg/mL (≈ 9.19 µM)	2 µg/mL (≈ 4.59 µM)	1 µg/mL (≈ 2.3 µM)	16 µg/mL (≈ 36.7 µM)	2 µg/mL (≈ 4.59 µM)					
CO/N=C(\C(=O)N[C@@H]1C(=O)N2C(C(=O)[O-])=C(C[n+]3cccc4c3CCC4)CS[C@H]12)c1csc(N)n1 [Cefpirome]	0.5 µg/mL (≈ 0.972 µM)	2 µg/mL (≈ 3.89 µM)	2 µg/mL (≈ 3.89 µM)	0.5 µg/mL (≈ 0.972 µM)	4 µg/mL (≈ 7.77 µM)	8 µg/mL (≈ 15.5 µM)					
O=C(N[C@H](CO)[C@H](O)c1ccc([N+](=O)[O-])cc1)C(Cl)Cl [Chloramphenicol]		32 µg/mL (≈ 99 µM)			64 µg/mL (≈ 198 µM)		1060 µg/mL (≈ 3290 µM)	32 µg/mL (≈ 99 µM)	1060 µg/mL (≈ 3290 µM)	64 µg/mL (≈ 198 µM)	
O=C(O)c1cn(C2CC2)c2cc(N3CCNCC3)c(F)cc2c1=O [Ciprofloxacin]	1 µg/mL (≈ 3.02 µM)	0.125 µg/mL (≈ 0.377 µM)	0.125 µg/mL (≈ 0.377 µM)	1 µg/mL (≈ 3.02 µM)	0.5 µg/mL (≈ 1.51 µM)	1 µg/mL (≈ 3.02 µM)					
C[C@@H](O)[C@H]1C(=O)N2C(C(=O)O)=C(SCCN=CN)C[C@H]12 [Imipenem]	4 µg/mL (≈ 13.4 µM)	1 µg/mL (≈ 3.34 µM)	1 µg/mL (≈ 3.34 µM)	4 µg/mL (≈ 13.4 µM)	1 µg/mL (≈ 3.34 µM)	1 µg/mL (≈ 3.34 µM)					
CC[C@H]1OC(=O)[C@H](C)[C@@H](O[C@H]2C[C@@](C)(OC)[C@@H](O)[C@H](C)O2)[C@H](C)[C@@H](O[C@@H]2O[C@H](C)C[C@H](N(C)C)[C@H]2O)[C@](C)(O)C[C@@H](C)CN(C)[C@H](C)[C@@H](O)[C@]1(C)O [azithromycin, Azithromycin]											significantly greater
